Measurements reported in US6107034A, “GATA-3 expression in human breast carcinoma” (The Board of Trustees of the Leland Stanford Junior …, priority 1998, dated 2000).

Experiments:
MCF7 cells = experiment: Northern blot of MCF7 cells in the presence and absence of β-estradiol; type: cell-based, human; conditions: 1×10^-8 M β-estradiol for three days
Protocol: All cell lines were obtained from American Type Culture Collection (ATCC, Rockville, Md.) and were maintained as described previously. MCF7 cells that were induced with estradiol were grown under normal conditions until approximately 25% confluence. The media was subsequently changed to phenol-red free Minimal Essential Media (Gibco BRL, Gaithersburg, Md.) supplemented with 10% charcoal-stripped fetal calf serum, 10 U/ml penicillin G, 10 μg/ml streptomycin, 6 ng/ml bovine insulin for six days. MCF7 cells were induced with 1×10^-8 M water soluble β-estradiol (Sigma Chemical Company, St. Louis, Mo.) for three days.
Poly(A+)mRNA was isolated from breast carcinoma cell lines and analyzed by Northern blot as described previously (Carmeci et al. (1997) Genomics 45, 607-617). The GATA-3 cDNA probe was prepared by reverse transcribing 1.6 μg of MCF7 poly(A)+RNA using the GeneAmp® RNA PCR Kit (Perkin Elmer, Foster City, Calif.) as per the manufacturer's recommendations. Resultant cDNA was used as template to PCR amplify (GeneAmp® PCR Kit, Perkin Elmer) the region of the GATA-3 cDNA from +530 to +1712 (numbered in accordance with the GATA-3 cDNA sequence, Genbank accession number X55122) using primers GATA3-2 (SEQ ID NO:3) [5-[…]-3'] and GATA3-4 (SEQ ID NO:4) [5'-[…]-3']. […]

free GATA-3 = experiment: Gel retardation assay, free GATA-3 binding to GATA DNA probe; design: species or system human; conditions: 1 μM, gel shift
Text: Acids Res 11, 1475-1489. […] (Santa Cruz Biotechnology) was also used as a competitor.

GATA-3 (TnT-GATA3) = GATA-3 (TnT-GATA3) (Homo sapiens, UniProt P23771 P23771:1-443); experiment: competition; mutant cold competitor at 100-fold molar excess; text states only appropriate sequence specificity by gel shift competition; conditions: tags: none stated
Protocol: Acids Res* 11, 1475–1489. […] (Santa Cruz Biotechnology) was also used as a competitor.
It was important to determine if functional GATA-3 protein is expressed in these cells. The GATA-3 cDNA was cloned from the MCF7 cells and GATA-3 protein was expressed using in vitro transcription/translation. […] MCF7 nuclear extracts were also tested for GATA binding activity.

Chain of GATA-3 (TnT-GATA3) (P23771 whole entry, one chain of several): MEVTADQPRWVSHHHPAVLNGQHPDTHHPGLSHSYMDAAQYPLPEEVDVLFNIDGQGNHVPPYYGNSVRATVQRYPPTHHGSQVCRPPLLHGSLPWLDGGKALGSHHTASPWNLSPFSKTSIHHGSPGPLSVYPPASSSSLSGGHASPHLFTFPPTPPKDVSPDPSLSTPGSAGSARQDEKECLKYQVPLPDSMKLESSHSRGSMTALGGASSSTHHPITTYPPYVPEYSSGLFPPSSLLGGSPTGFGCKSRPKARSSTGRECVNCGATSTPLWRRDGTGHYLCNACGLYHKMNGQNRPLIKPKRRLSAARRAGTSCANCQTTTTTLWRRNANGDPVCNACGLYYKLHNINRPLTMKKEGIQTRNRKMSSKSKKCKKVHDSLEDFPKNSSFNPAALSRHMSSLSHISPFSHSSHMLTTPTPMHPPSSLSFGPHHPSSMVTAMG

Molecule: C[C@]12CC[C@@H]3c4ccc(O)cc4CC[C@H]3[C@@H]1CC[C@@H]2O [estradiol, β-estradiol]
- expression of GATA-3 mRNA (MCF7 cells): did not change
- pS2 expression (mRNA) (MCF7 cells): induced

Molecule: CC/C(=C(\c1ccccc1)c1ccc(OCCN(C)C)cc1)c1ccccc1 [tamoxifen]
- interference with free GATA-3 binding DNA (free GATA-3): does not interfere with free GATA-3 binding DNA

B1: mutant GATA oligonucleotide (dsDNA)
DNA 1: CACTTCTTAACAGAAAGTCTTAACTCT
DNA 2: AGAGTTAAGACTTTCTGTTAAGAAGTG
modifications: [NONE]
- binding result (GATA-3 (TnT-GATA3)): no binding
